pEC50, pKd: −log10 of the molar value. In brackets after ≈: the same amount, converted by molar mass. Where two headings read alike, the source gives them in different places. Positions of bridges follow the written chain, without caps; N, C: chain ends. Non-standard residues stand in square brackets, D forms with d. Residues, ends and D or L forms follow the SMILES beside them. Lys(N3) = [N-]=[N+]=NCCCC[C@H](N)C(=O)O; hArg = N=C(N)NCCCC[C@H](N)C(=O)O; R8 = C=CCCCCCC[C@@](C)(N)C(=O)O; Cba = N[C@@H](CC1CCC1)C(=O)O; S5 = C=CCCC[C@](C)(N)C(=O)O; βAla = NCCC(=O)O
What was measured:
[1] = tested on: panel of cancer cell lines, p53 WT or p53 deficient (null, mutant, HPV infected); type: cell-based; conditions: p53 WT vs p53 null/mutant/HPV
Excerpt: Amongst the cell lines used, the following lines are amongst those listed as frequently misidentified by the International Cell Line Authentication Committee: HeLa, A549, HepG2, MCF-7,LoVo, SW48,.AsPC-1,HL-60, and MIA PaCa-2. These latter lines were used in order to employ a variety of lines represented diverse cancer types and that represented different p53 status (wild-type, mutant, null, and HPV infected). Imporantly, assay ready cells were used for these experiments and PCR analysis of target short tandem repeat (STR) markers was used to authenticate cell lines prior to cell banking. Cell viabilities were determined using the CellTiter-Glo® assay kit (Promega G7558). […] Assay plates were incubated at 37 °C, 5% CO2 overnight to allow cell attachment. Following day, compounds were dispensed into the assay plate using the Tecan HPD300 system and incubated at 37 °C, 5% CO2 for 120 h. At 120 h post dose, CellTiter-Glo assay was performed according to the manufacturer’s protocol. […] Staurosporine (Selleckchem S1421) was used as a positive control for the assay.

[2] = Lactate dehydrogenase (LDH) release assay; type: cell-based
Procedure, shortened: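 Membrane damage measured as lactate dehydrogenase release (CytoTox-ONE kit) from p53-responsive β-lactamase reporter HCT116 cells plated at 8000 per well. Final DMSO 0.5%; geometric mean reported from a minimum of three biological replicates.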

[3] = Experimental LogD (partition coefficient); conditions: for logD: not stated, Partition Coeff LogD
EPSA = type: physicochemical; conditions: EPSA
in vitro [4] = conditions: human, HCT116 whole cell homogenates
[5] = Solubility assay (kinetic solubility, PBS pH 7); type: physicochemical; conditions: for solubility kinetic: pH 7, aqueous buffer, kinetic from dmso stock, read-out: Solubility
Procedure, shortened: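 Quantitation uses an external standard at 100 µM, prepared from 10 mM stock in acetonitrile:methanol:DMSO (10:80:10). Solubility (µM) = (peak area of sample ÷ peak area of standard) × standard concentration.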

Ca Ski cell line = conditions: 72 h
Procedure, shortened: (§1)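 Compound dilution series (10 points, 3-fold, 10 mM top stock in DMSO) tested on overnight-plated Ca Ski cells in RPMI1640/10% FBS and on blasticidin-selected p53RE-bla HCT-116 cells in McCoy's 5A; read-out was CellTiter-Glo 2.0 luminescence after room-temperature equilibration.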

[6] = tested on: CellSensor p53RE-bla HCT-116 Cell Line; conditions: 72 h
Procedure, shortened: as §1

in vitro [7] = conditions: Nanoclick permeability assay EC50
Procedure, shortened: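 Azido-peptide permeability was read as loss of NanoBRET signal (donor 450 nm, acceptor 610 nm) after adding NanoBret618-azide at 10 μM final.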

human Mdm2 1–125 = target: T1, human Mdm2 1–125 (Homo sapiens, UniProt Q00987); experiment: Mdm2 binding by competitive fluorescence anisotropy assay (FP binding); conditions: read-out: FP binding assay KD
T1 construct: GST (N); His6 (internal); TEV cleavage site (ENLYFQG) (internal); made in house; host or cells: BL21 (DE3) Rosetta T1R Escherichia coli

[8] = tested on: Jump-In T-REx CHO-K1 BLA cells; experiment: cells; type: cell-based; conditions: for pEC50: read-out: TETCHO: Counterscreen EC50
[9] = tested on: p53 responsive β-lactamase reporter in HCT116 cells; experiment: cells; type: cell-based; conditions: read-out: p53 reporter assay EC50
Procedure, shortened: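 HCT116 cells stably carrying a p53-responsive β-lactamase reporter, seeded at 8000 cells/well, with 0.5% DMSO final. Reporter activity read by ToxBLAzer Dual Screen. Values are geometric means of at least three biological replicates.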

T1 sequence (Q00987 with tags, fused parts or gaps): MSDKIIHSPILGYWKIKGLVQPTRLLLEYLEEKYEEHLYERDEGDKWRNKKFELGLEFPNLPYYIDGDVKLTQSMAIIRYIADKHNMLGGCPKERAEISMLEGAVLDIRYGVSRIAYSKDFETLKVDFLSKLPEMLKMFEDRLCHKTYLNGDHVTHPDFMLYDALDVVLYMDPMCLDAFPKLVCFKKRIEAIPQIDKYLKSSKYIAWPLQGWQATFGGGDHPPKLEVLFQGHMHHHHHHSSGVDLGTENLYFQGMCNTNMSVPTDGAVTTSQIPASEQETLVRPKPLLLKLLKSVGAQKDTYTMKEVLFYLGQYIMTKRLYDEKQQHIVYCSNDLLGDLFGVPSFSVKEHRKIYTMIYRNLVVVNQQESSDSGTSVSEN

SMILES | Partition Coeff LogD [3] | Solubility ([5]; pH 7, PBS) | cell entry EC50 (in vitro [7]) [nM] | pEC50 ([2]; LDH: Cytotoxicity assay EC50) | logD [3] | EPSA (physchem) [A^2] | solubility kinetic ([5]; pH 7, PBS) [µM] | other results
CC1CCC(Cn2c(N3CCO[C@@H]4CCC[C@H]43)nc3cc(-c4noc(=O)[nH]4)nc(-c4cncc(Cl)c4)c32)CC1 (stereo partly drawn) [MK-4688, reference compound] | – | – | – | – | – | – | – | off-target proliferation effects in p53 deficient control lines [1]: significant off-target toxicities
CC(=O)N[C@@H](CCCCN=[N+]=[N-])C(=O)NCCC(=O)N[C@@H](CC(C)C)C(=O)N[C@H](C(=O)N[C@@H](Cc1ccccc1)C(=O)N[C@]1(C)CCCCCCC=CCCC[C@@](C)(C(=O)N[C@@H](C)C(=O)N[C@@H](C)C(=O)N[C@@H](C)C(=O)N[C@@H](C)C(=O)N[C@@H](C)C(=O)N[C@@H](C)C(N)=O)NC(=O)[C@H](CC2CCC2)NC(=O)[C@H](CCC(N)=O)NC(=O)[C@H](C)NC(=O)[C@H](Cc2c[nH]c3ccccc23)NC(=O)[C@H](Cc2ccc(O)cc2)NC(=O)[C@H](CCC(=O)O)NC1=O)[C@@H](C)O [MP-032] (Ac-[Lys(N3)][βAla]LTF[R8]EYWAQ[Cba][S5]AAAAAA-NH2; staple 6-13) | Poorly Behaved | Poorly Behaved | 708 | – | – | – | – | pEC50 ([2]; LDH: Cytotoxicity assay: EC50): < 4.29; EPSA (EPSA): 194 A^2; half-life at 1 μM (in vitro [4]): 30 min; Solubility [5]: P.B.; pEC50 (Ca Ski cell line): 4.58; pEC50 [6]: 6.02
CC(=O)N[C@@H](CO)C(=O)NCC(=O)N[C@@H](CO)C(=O)N[C@H](C(=O)N[C@@H](CO)C(=O)N[C@@H](Cc1ccccc1)C(=O)N[C@]1(C)CCCCCCC=CCCC[C@@](C)(C(N)=O)NC(=O)[C@H](CC(C)C)NC(=O)[C@H](CC(C)C)NC(=O)[C@H](C)NC(=O)[C@H](Cc2c[nH]c3ccccc23)NC(=O)[C@H](Cc2ccc(O)cc2)NC(=O)[C@H](CCC(=O)O)NC1=O)[C@@H](C)O [MP-654] | – | – | – | < 4.30 | 2.3 | 217 | 23 (≈ 39 µg/mL) | pKd (human Mdm2 1–125): 8.23; TETCHO: Counterscreen % Effect ([8]; 0% FBS 4Hr): 1.563%; pEC50 ([8]; 0% FBS 4Hr): < 4.30; TETCHO: Counterscreen % Effect ([8]; 0% FBS 16Hr): 3.969%; pEC50 ([8]; 0% FBS 16Hr): < 4.30; pEC50 ([9]; 0% FBS 4Hr): 4.99; pEC50 ([9]; 0% FBS 16Hr): 4.86
CC(=O)N[C@@H](CCCCN=[N+]=[N-])C(=O)N[C@H](C(=O)N[C@@H](CO)C(=O)N[C@@H](Cc1ccccc1)C(=O)N[C@]1(C)CCCCCCC=CCCC[C@@](C)(C(=O)N[C@@H](CO)C(=O)N[C@@H](C)C(=O)N[C@@H](C)C(N)=O)NC(=O)[C@H](CC2CCC2)NC(=O)[C@H](CCC(N)=O)NC(=O)[C@H](C)NC(=O)[C@H](Cc2c[nH]c3ccccc23)NC(=O)[C@H](Cc2ccc(O)cc2)NC(=O)[C@H](C)NC1=O)[C@@H](C)O [MP-703] (Ac-[Lys(N3)]TSF[R8]AYWAQ[Cba][S5]SAA-NH2; staple 5-12) | Poorly Behaved | Poorly Behaved | – | < 4.30 | – | 178 | – | TETCHO: Counterscreen % Effect ([8]; 0% FBS 4Hr): 32.8%; pEC50 ([8]; 0% FBS 4Hr): < 4.30; pEC50 ([9]; 0% FBS 4Hr): 6.52; pEC50 ([9]; 0% FBS 16Hr): 6.06
CC(=O)N[C@@H](CCCCN=[N+]=[N-])C(=O)NCCC(=O)N[C@@H](CC(C)C)C(=O)N[C@H](C(=O)N[C@@H](Cc1ccccc1)C(=O)N[C@]1(C)CCCCCCC=CCCC[C@@](C)(C(=O)N[C@@H](CO)C(=O)N[C@@H](CCCCNC(=N)N)C(=O)N[C@@H](C)C(N)=O)NC(=O)[C@H](CC2CCC2)NC(=O)[C@H](CCC(N)=O)NC(=O)[C@H](C)NC(=O)[C@H](Cc2c[nH]c3ccccc23)NC(=O)[C@H](Cc2ccc(O)cc2)NC(=O)[C@H](CCC(=O)O)NC1=O)[C@@H](C)O [MP-881] (Ac-[Lys(N3)][βAla]LTF[R8]EYWAQ[Cba][S5]S[hArg]A-NH2; staple 6-13) | – | – | 1920 | < 4.30 | 2.9 | 183 | 2 (≈ 4.14 µg/mL) | –
CC(=O)N[C@@H](CCCCN=[N+]=[N-])C(=O)NCCC(=O)N[C@@H](CC(C)C)C(=O)N[C@H](C(=O)N[C@@H](Cc1ccccc1)C(=O)N[C@]1(C)CCCCCCC=CCCC[C@@](C)(C(=O)N[C@@H](CO)C(=O)N[C@@H](C)C(=O)N[C@@H](C)C(N)=O)NC(=O)[C@H](CC2CCC2)NC(=O)[C@H](CCC(N)=O)NC(=O)[C@H](CCCCNC(=N)N)NC(=O)[C@H](Cc2c[nH]c3ccccc23)NC(=O)[C@H](Cc2ccc(O)cc2)NC(=O)[C@H](CCC(=O)O)NC1=O)[C@@H](C)O [MP-899] (Ac-[Lys(N3)][βAla]LTF[R8]EYW[hArg]Q[Cba][S5]SAA-NH2; staple 6-13) | – | – | 189 | < 4.30 | 2.76 | 200 | 2 (≈ 4.14 µg/mL) | –
CC(=O)N[C@@H](CCCCN=[N+]=[N-])C(=O)NCCC(=O)N[C@@H](CC(C)C)C(=O)N[C@H](C(=O)N[C@@H](Cc1ccccc1)C(=O)N[C@]1(C)CCCCCCC=CCCC[C@@](C)(C(=O)N[C@@H](CCCCNC(=N)N)C(=O)N[C@@H](C)C(=O)N[C@@H](C)C(N)=O)NC(=O)[C@H](CC2CCC2)NC(=O)[C@H](CCC(N)=O)NC(=O)[C@H](C)NC(=O)[C@H](Cc2c[nH]c3ccccc23)NC(=O)[C@H](Cc2ccc(O)cc2)NC(=O)[C@H](CCC(=O)O)NC1=O)[C@@H](C)O [MP-901] (Ac-[Lys(N3)][βAla]LTF[R8]EYWAQ[Cba][S5][hArg]AA-NH2; staple 6-13) | Poorly Behaved | Poorly Behaved | 460 | < 4.30 | – | 186 | – | –
CC(=O)N[C@@H](CCCCN=[N+]=[N-])C(=O)NCCC(=O)N[C@@H](CC(C)C)C(=O)N[C@H](C(=O)N[C@@H](Cc1ccccc1)C(=O)N[C@]1(C)CCCCCCC=CCCC[C@@](C)(C(=O)N[C@@H](CO)C(=O)N[C@@H](C)C(=O)N[C@@H](CCCCNC(=N)N)C(N)=O)NC(=O)[C@H](CC2CCC2)NC(=O)[C@H](CCC(N)=O)NC(=O)[C@H](C)NC(=O)[C@H](Cc2c[nH]c3ccccc23)NC(=O)[C@H](Cc2ccc(O)cc2)NC(=O)[C@H](CCC(=O)O)NC1=O)[C@@H](C)O [MP-902] (Ac-[Lys(N3)][βAla]LTF[R8]EYWAQ[Cba][S5]SA[hArg]-NH2; staple 6-13) | – | – | 2650 | < 4.30 | 2.54 | 191 | 6 (≈ 12.4 µg/mL) | –
CC(=O)N[C@@H](CCCCN=[N+]=[N-])C(=O)NCCC(=O)N[C@@H](CC(C)C)C(=O)N[C@H](C(=O)N[C@@H](Cc1ccccc1)C(=O)N[C@]1(C)CCCCCCC=CCCC[C@@](C)(C(=O)N[C@@H](CO)C(=O)N[C@@H](C)C(=O)N[C@@H](C)C(N)=O)NC(=O)[C@H](CC2CCC2)NC(=O)[C@H](CCC(N)=O)NC(=O)[C@H](C)NC(=O)[C@H](Cc2c[nH]c3ccccc23)NC(=O)[C@H](Cc2ccc(O)cc2)NC(=O)[C@H](CCCCNC(=N)N)NC1=O)[C@@H](C)O [MP-6898] (Ac-[Lys(N3)][βAla]LTF[R8][hArg]YWAQ[Cba][S5]SAA-NH2; staple 6-13) | – | – | 2120 | 4.91 | 3.21 | 181 | 2 (≈ 4.02 µg/mL) | –

Source: PMC10786919, “Design-rules for stapled peptides with in vivo activity and their application to Mdm2/X antagonists” (Nature Communications, 2024)
